In publication PMC8151276, “An Integrated Approach toward NanoBRET Tracers for Analysis of GPCR Ligand Engagement” (Molecules, 2021):

Tests used:
Type in all cases: binding
CCR9 = molecular target: T1, CCR9 (Homo sapiens, UniProt P51686); test: NanoBRET screen HiBiT-CCR9 in HEK293
T1 construct: purchased Promega (in-house HiBiT-GPCR construct library, NanoBRET)
T1 sequence (P51686 1-369): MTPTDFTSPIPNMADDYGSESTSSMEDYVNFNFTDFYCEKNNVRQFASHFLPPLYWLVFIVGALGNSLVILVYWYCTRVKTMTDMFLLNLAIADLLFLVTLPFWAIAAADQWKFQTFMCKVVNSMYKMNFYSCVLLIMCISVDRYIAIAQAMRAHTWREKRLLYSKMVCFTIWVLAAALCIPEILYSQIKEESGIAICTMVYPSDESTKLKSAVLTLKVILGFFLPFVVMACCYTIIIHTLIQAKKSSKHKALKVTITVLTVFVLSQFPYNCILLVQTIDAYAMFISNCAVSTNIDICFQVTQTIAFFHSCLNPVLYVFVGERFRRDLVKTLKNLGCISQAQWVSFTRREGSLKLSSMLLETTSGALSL
Method: (§1) Each tracer candidate was screened across the entire library of HiBiT-GPCR constructs using NanoBRET as the detection modality. As depicted in Figure 4A, the specificity of interactions was evaluated through decrease in BRET due to competitive displacement of a bound tracer by excess parental compound. Each tracer was analyzed for binding to each HiBiT-GPCR fusion in the absence and in the presence of competing parental compound. Briefly, HEK293 cells were transfected with HiBiT-GPCR constructs diluted into promoterless DNA to reduce expression and maximize translocation to the cell surface. Each tracer candidate was then screened at concentrations of 1 μM and 0.1 μM across cells expressing these fusions. Cells were treated for 1.5 h with tracer either alone or in the presence of 20 μM competing parental compound (i.e., control). BRET was measured upon addition of purified LgBiT and subsequent complementation with HiBiT genetically fused to a GPCR. The specificity of interactions was assessed through a decrease in BRET signal due to competitive displacement of the bound tracer. To further gauge the robustness of these interactions, the fold response over the control (i.e., BRETtracer/BRETcontrol) was calculated. We chose a 1.5-fold response, which translates to ≥7-fold signal over noise as the minimal threshold required to score an interaction as positive. […]. Below we highlight the screening results obtained for our exemplary fluorescent tracers based on Clozapine, Amitriptyline and AZD1283.
(§2) HiBiT-GPCR DNA constructs were diluted in 10 mM Tris pH 8 to a final concentration of 0.01 μg/μL, arrayed in 96-well plates and stored at −20 °C. For transfection, HEK293 cells were suspended in Opti-MEM (without phenol red) supplemented with 2% fetal bovine serum (Seradigm) and 100 units/mL penicillin–streptomycin (Gibco) at a final concentration of 220,000 cells/mL and dispensed into white 96-well plates at 90 μL/well. Subsequent transfections and screens were carried using an Agilent Bravo Automated Liquid Handling Platform. First, the 96-well HiBiT DNA arrays were diluted 25-fold in Opti-MEM (without serum or phenol red) to a final concentration of 0.0004 μg/μL and 20 μL of the diluted DNAs were transferred into new 96-well plates. Next, promoterless carrier DNA (1 μg/μL) was diluted 25-fold (0.04 μg/μL) and then dispensed into the diluted arrays at 20 μL/well. Following brief mixing, Viafect transfection reagent (Promega) diluted 16-fold into Opti-MEM was dispensed into the plates at 40 μL/well. After mixing by pipetting, plates were incubated for 10 min on the pipetting station deck. The DNA-transfection reagent complexes were then added to plates containing cells. To facilitate the screen, 10 μL of DNA-transfection reagent complexes were added in duplicates to the top 4 and bottom 4 rows, resulting in two identical 48-well arrays per plate. Plates with transfected cells were incubated for 18–20 h at 37 °C/5% CO2. A screen of each tracer across the entire library using two different concentrations requires duplicate plates of transfected cells. Depending on the number of tracers being screened, transfections can be scaled up using the same ratios. The next day, for each tracer, four 20× screening solutions in tracer dilution buffer (Promega) were prepared: two duplicates at final concentration of 20 μM and two duplicates at a final concentration of 2 μM. A competing unmodified compound was added to one of each duplicate at a final concentration of 400 μM. The four resulting solutions were diluted 4-fold in Opti-MEM without serum or phenol red to generate 5× solutions (5 µM and 0.5 µM tracer +/− 100 μM competing compound). To screen the library, a BioTek MultiFlo FX liquid dispenser was used to dispense 22.5 µL of tracer solution to the top 4 rows and 22.5 µL tracer + competing compound solution to the 4 bottom rows. Plates were briefly mixed on an orbital shaker and incubated for 1.5 h at room temperature. […]

FZD8 = molecular target: T2, FZD8 (Homo sapiens, UniProt Q9H461); test: NanoBRET screen HiBiT-FZD8 in HEK293
T2 construct: purchased Promega (in-house HiBiT-GPCR construct library, NanoBRET)
Method: as §1, §2

SSTR3 = molecular target: T3, SSTR3 (Homo sapiens, UniProt P32745); test: NanoBRET screen HiBiT-SSTR3 in HEK293
T3 construct: purchased Promega (in-house HiBiT-GPCR construct library, NanoBRET)
Method: as §1, §2

MC4R = molecular target: T4, MC4R (Homo sapiens, UniProt P32245); test: NanoBRET screen HiBiT-MC4R in HEK293
T4 construct: purchased Promega (in-house HiBiT-GPCR construct library, NanoBRET)
Method: as §1, §2

T3 sequence (P32745 whole entry): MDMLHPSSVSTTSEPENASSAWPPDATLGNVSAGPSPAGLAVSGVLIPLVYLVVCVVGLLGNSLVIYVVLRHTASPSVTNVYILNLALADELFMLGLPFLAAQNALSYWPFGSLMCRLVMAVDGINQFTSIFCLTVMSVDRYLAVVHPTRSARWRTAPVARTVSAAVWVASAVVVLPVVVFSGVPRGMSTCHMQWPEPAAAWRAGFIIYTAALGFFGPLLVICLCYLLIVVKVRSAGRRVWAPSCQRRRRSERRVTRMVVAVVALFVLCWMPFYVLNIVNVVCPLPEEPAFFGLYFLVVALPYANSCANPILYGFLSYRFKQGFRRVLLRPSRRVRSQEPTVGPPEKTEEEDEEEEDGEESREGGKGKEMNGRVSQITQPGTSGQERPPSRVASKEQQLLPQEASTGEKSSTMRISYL
T4 sequence (P32245 whole entry): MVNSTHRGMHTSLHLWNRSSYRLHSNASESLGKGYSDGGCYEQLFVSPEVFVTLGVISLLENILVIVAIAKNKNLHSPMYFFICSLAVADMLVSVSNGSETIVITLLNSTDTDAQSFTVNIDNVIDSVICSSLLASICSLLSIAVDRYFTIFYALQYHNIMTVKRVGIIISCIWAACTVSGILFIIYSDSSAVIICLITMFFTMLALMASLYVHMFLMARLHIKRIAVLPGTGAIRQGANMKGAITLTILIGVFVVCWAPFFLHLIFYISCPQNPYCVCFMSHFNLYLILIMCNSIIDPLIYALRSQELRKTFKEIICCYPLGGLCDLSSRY
T2 sequence (Q9H461 28-694): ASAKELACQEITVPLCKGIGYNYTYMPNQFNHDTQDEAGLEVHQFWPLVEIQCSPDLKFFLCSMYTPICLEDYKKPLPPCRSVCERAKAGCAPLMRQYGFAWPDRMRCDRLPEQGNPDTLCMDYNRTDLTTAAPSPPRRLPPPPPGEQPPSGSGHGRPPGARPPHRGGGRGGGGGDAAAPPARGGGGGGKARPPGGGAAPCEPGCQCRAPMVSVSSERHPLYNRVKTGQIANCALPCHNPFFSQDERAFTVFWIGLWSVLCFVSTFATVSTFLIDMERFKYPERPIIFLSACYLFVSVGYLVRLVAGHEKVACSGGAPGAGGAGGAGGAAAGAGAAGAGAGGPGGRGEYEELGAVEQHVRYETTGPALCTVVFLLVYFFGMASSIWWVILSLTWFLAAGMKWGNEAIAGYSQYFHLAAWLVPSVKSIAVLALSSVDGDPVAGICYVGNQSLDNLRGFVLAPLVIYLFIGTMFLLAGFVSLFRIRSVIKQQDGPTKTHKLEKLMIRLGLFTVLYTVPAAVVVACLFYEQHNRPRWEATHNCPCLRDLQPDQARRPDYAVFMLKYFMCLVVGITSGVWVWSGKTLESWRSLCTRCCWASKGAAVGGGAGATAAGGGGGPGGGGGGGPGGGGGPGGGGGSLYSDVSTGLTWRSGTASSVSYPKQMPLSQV

Structure (SMILES): O=C(CCc1ccc2n1[B-](F)(F)[N+]1=C(c3ccc[nH]3)C=CC1=C2)NCc1ccc(C(=O)NCCOCCC(=O)N[C@@H]2CC[C@@]3(O)[C@H]4Cc5ccc(O)c6c5[C@@]3(CCN4CC3CC3)[C@H]2O6)cc1 [Naltrexone-3-NB590]
- NanoBRET Fold Response (CCR9; CCR9, tracer 0.1μM): 0.55
- NanoBRET Fold Response (CCR9; CCR9, tracer 1μM): 0.92
- NanoBRET Fold Response (FZD8; FZD8, tracer 0.1μM): 0.90
- NanoBRET Fold Response (FZD8; FZD8, tracer 1μM): 0.78
- NanoBRET Fold Response (SSTR3; SSTR3, tracer 0.1μM): 0.97
- NanoBRET Fold Response (SSTR3; SSTR3, tracer 1μM): 1.01
- NanoBRET Fold Response (MC4R; MC4R, tracer 0.1μM): 1.06
- NanoBRET Fold Response (MC4R; MC4R, tracer 1μM): 1.06

Structure (SMILES): CN1CCN(C2=Nc3cc(Cl)ccc3N(CC(=O)NCCOCCOCCOCCOCCNC(=O)CCc3ccc4n3[B-](F)(F)[N+]3=C(c5ccc[nH]5)C=CC3=C4)c3ccccc32)CC1 [Clozapine-c-2-NB590]
- NanoBRET Fold Response (CCR9; CCR9, 0.1μM tracer): 1.02
- NanoBRET Fold Response (CCR9; CCR9, 1μM tracer): 0.87
- NanoBRET Fold Response (FZD8; FZD8, 0.1μM tracer): 0.97
- NanoBRET Fold Response (FZD8; FZD8, 1μM tracer): 1.04
- NanoBRET Fold Response (SSTR3; SSTR3, 0.1μM tracer): 0.95
- NanoBRET Fold Response (SSTR3; SSTR3, 1μM tracer): 1.02
- NanoBRET Fold Response (MC4R; MC4R, 0.1μM tracer): 1.02
- NanoBRET Fold Response (MC4R; MC4R, 1μM tracer): 1.06

Structure (SMILES): O=C(CCOCCOCCOCCOCCNC(=O)CCc1ccc2n1[B-](F)(F)[N+]1=C(c3ccc[nH]3)C=CC1=C2)NCCCN1CCN(C2=Nc3cc(Cl)ccc3Nc3ccccc32)CC1 [Clozapine-a-2-NB590]
- NanoBRET Fold Response (CCR9; CCR9, 0.1μM tracer): 1.03
- NanoBRET Fold Response (CCR9; CCR9, 1μM tracer): 1.05
- NanoBRET Fold Response (FZD8; FZD8, 0.1μM tracer): 1.02
- NanoBRET Fold Response (FZD8; FZD8, 1μM tracer): 1.00
- NanoBRET Fold Response (SSTR3; SSTR3, 0.1μM tracer): 0.91
- NanoBRET Fold Response (SSTR3; SSTR3, 1μM tracer): 1.05
- NanoBRET Fold Response (MC4R; MC4R, 0.1μM tracer): 1.02
- NanoBRET Fold Response (MC4R; MC4R, 1μM tracer): 1.01

Structure (SMILES): CCOC(=O)c1cc(C#N)c(N2CCC(C(=O)NS(=O)(=O)Cc3ccccc3/C=C/C(=O)NCCNC(=O)CCc3ccc4n3[B-](F)(F)[N+]3=C(c5ccc[nH]5)C=CC3=C4)CC2)nc1C [AZD1283-1-NB590]
- NanoBRET Fold Response (CCR9; CCR9, 0.1μM): 1.13
- NanoBRET Fold Response (CCR9; CCR9, 1μM): 1.10
- NanoBRET Fold Response (FZD8; FZD8, 0.1μM): 1.11
- NanoBRET Fold Response (FZD8; FZD8, 1μM): 0.71
- NanoBRET Fold Response (SSTR3; SSTR3, 0.1μM): 1.07
- NanoBRET Fold Response (SSTR3; SSTR3, 1μM): 1.13
- NanoBRET Fold Response (MC4R; MC4R, 0.1μM): 0.98
- NanoBRET Fold Response (MC4R; MC4R, 1μM): 1.01

Structure (SMILES): COc1ccc2[nH]c(-c3ccc(CNC(=O)CCOCCOCCOCCOCCNC(=O)CCc4ccc5n4[B-](F)(F)[N+]4=C(c6ccc[nH]6)C=CC4=C5)cc3)c(CCNC(C)=O)c2n1 [AzomelatoninICO9-2-NB590]
- NanoBRET Fold Response (CCR9; 0.1μM tracer): 0.97
- NanoBRET Fold Response (CCR9; 1μM tracer): 0.89
- NanoBRET Fold Response (FZD8; 0.1μM tracer): 0.91
- NanoBRET Fold Response (FZD8; 1μM tracer): 1.03
- NanoBRET Fold Response (SSTR3; 0.1μM tracer): 0.94
- NanoBRET Fold Response (SSTR3; 1μM tracer): 1.01
- NanoBRET Fold Response (MC4R; 0.1μM tracer): 0.92
- NanoBRET Fold Response (MC4R; 1μM tracer): 0.98

Structure (SMILES): CCCn1c(=O)c2[nH]c(-c3ccc(OCC(=O)NCCNC(=O)CCOCCNC(=O)c4ccc(CNC(=O)CCc5ccc6n5[B-](F)(F)[N+]5=C(c7ccc[nH]7)C=CC5=C6)cc4)cc3)nc2n(CCC)c1=O [XAC-3-NB590]
- NanoBRET Fold Response (CCR9; CCR9, tracer 0.1μM): 0.95
- NanoBRET Fold Response (CCR9; CCR9, tracer 1μM): 1.57
- NanoBRET Fold Response (FZD8; FZD8, tracer 0.1μM): 0.95
- NanoBRET Fold Response (FZD8; FZD8, tracer 1μM): 1.02
- NanoBRET Fold Response (SSTR3; SSTR3, tracer 0.1μM): 0.99
- NanoBRET Fold Response (SSTR3; SSTR3, tracer 1μM): 0.98
- NanoBRET Fold Response (MC4R; MC4R, tracer 0.1μM): 1.02
- NanoBRET Fold Response (MC4R; MC4R, tracer 1μM): 1.04

Structure (SMILES): COc1ccccc1N1CCN(CCCCN2C(=O)c3ccc(CNC(=O)CCOCCNC(=O)c4ccc(CNC(=O)CCc5ccc6n5[B-](F)(F)[N+]5=C(c7ccc[nH]7)C=CC5=C6)cc4)cc3C2=O)CC1 [NAN-190-3-NB590]
- NanoBRET Fold Response (CCR9; CCR9, tracer 0.1μM): 1.14
- NanoBRET Fold Response (CCR9; CCR9, tracer 1μM): 1.04
- NanoBRET Fold Response (FZD8; FZD8, tracer 0.1μM): 1.20
- NanoBRET Fold Response (FZD8; FZD8, tracer 1μM): 0.87
- NanoBRET Fold Response (SSTR3; SSTR3, tracer 0.1μM): 1.07
- NanoBRET Fold Response (SSTR3; SSTR3, tracer 1μM): 0.93
- NanoBRET Fold Response (MC4R; MC4R, tracer 0.1μM): 1.05
- NanoBRET Fold Response (MC4R; MC4R, tracer 1μM): 0.83

Structure (SMILES): CN(CCC=C1c2ccccc2CCc2ccccc21)C(=O)CCOCCOCCOCCOCCNC(=O)CCc1ccc2n1[B-](F)(F)[N+]1=C(c3ccc[nH]3)C=CC1=C2 [Amitriptyline-e-2-NB590]
- NanoBRET Fold Response (CCR9; tracer at 1μM): 0.95

Structure (SMILES): O=C(CCc1ccc2n1[B-](F)(F)[N+]1=C(c3ccc[nH]3)C=CC1=C2)NCc1ccc(C(=O)NCCOCCOCCNCC(O)COc2cccc3ccccc23)cc1 (centres unmarked) [Propranolol-3-NB590]
- NanoBRET Fold Response (CCR9; CCR9, 0.1μM): 1.08
- NanoBRET Fold Response (CCR9; CCR9, 1μM): 1.00
- NanoBRET Fold Response (FZD8; FZD8, 0.1μM): 1.01
- NanoBRET Fold Response (FZD8; FZD8, 1μM): 1.02
- NanoBRET Fold Response (SSTR3; SSTR3, 0.1μM): 0.99
- NanoBRET Fold Response (SSTR3; SSTR3, 1μM): 1.01
- NanoBRET Fold Response (MC4R; MC4R, 0.1μM): 0.98
- NanoBRET Fold Response (MC4R; MC4R, 1μM): 0.99

Structure (SMILES): COc1ccc2c(n1)c(CCNC(C)=O)cn2CCNC(=O)CCc1ccc2n1[B-](F)(F)[N+]1=C(c3ccc[nH]3)C=CC1=C2 [Azamelatonin-1-NB590]
- NanoBRET Fold Response (CCR9; 0.1μM tracer): 1.05
- NanoBRET Fold Response (CCR9; 1μM tracer): 1.04
- NanoBRET Fold Response (FZD8; 0.1μM tracer): 1.39
- NanoBRET Fold Response (FZD8; 1μM tracer): 0.81
- NanoBRET Fold Response (SSTR3; 0.1μM tracer): 1.03
- NanoBRET Fold Response (SSTR3; 1μM tracer): 1.08
- NanoBRET Fold Response (MC4R; 0.1μM tracer): 0.87
- NanoBRET Fold Response (MC4R; 1μM tracer): 1.03

Structure (SMILES): CN(C)CCC=C1c2ccccc2CCc2ccc(C(=O)NCCNC(=O)CCOCCOCCOCCOCCNC(=O)CCc3ccc4n3[B-](F)(F)[N+]3=C(c5ccc[nH]5)C=CC3=C4)cc21 [Amitriptyline-a-2-NB590]
- NanoBRET Fold Response (CCR9; tracer at 0.1μM): 0.99
- NanoBRET Fold Response (CCR9; tracer at 1μM): 1.05
- NanoBRET Fold Response (SSTR3; tracer at 0.1μM): 1.05
- NanoBRET Fold Response (SSTR3; tracer at 1μM): 1.05
